Measured values from US7247734B2 (Vernalis (Cambridge) Limited, priority 2001, dated 2007).

How the values were obtained:
[1] = system: HT29 human colon tumour cells; test: 96 h growth inhibition assay (SRB), HT29; type: cell-based; details: Homo sapiens, HT-29; HT29, 96 h
Experimental: The growth inhibition assay employed was based on that described previously (Kelland et al., 1993). HCT116 and HT29 human colon tumour cells (American Tissue Culture Collection) were seeded into 96-well tissue culture plates (approximately 1600–2000 cells per well) and allowed to attach for 36 hours. Eight wells were treated with a single concentration from a range of compound concentrations and incubated for 96 hours. Cells were fixed using ice cold 10% trichloroacetic acid (TCA). Plates were then washed five times with water, air dried, and stained with 0.4% sulphorhodamine B (SRB) in 1% acetic acid for 10 minutes. The SRB stain was solubilised in 10 mM Tris-HCl and the absorbance measured at 540 nm using a Titertek Multiscan MCC/340 MKII plate reader (Flow Laboratories, IEC, Basingstoke, N.H.). The absorbance values correspond to total protein content and are used as a measure of cell growth.

HCT116 cells = test: Cellular protein by BCA assay after compound exposure (ELISA plates); type: cell-based, human; details: for Cellular Protein (% DMSO controls): HCT116, 10 μM compound
Experimental: Incubate at 37° for 30 min. • (6) Wash plates twice in PBS using an automated washer (Wellwash 5000 ten plate stacker-washer or Wellwash Ascent single plate washer, Thermo Labsystems, Basingstoke, UK). • (7) Block the plates by addition of blocking solution (100 μl) and incubate for 30 min. • (8) Add 100 μl primary antibody diluted to 0.95 μg/ml in PBS to each well and incubate plate for 1.5 h. Wash plates once with DELFIA® wash solution. • (9) Add 100 μl Europium labelled anti-mouse IgG diluted in DELFIA® assay buffer to 75 ng/ml and incubate for 1 hour. Wash plates once with DELFIA® wash solution as before. • (10) Add 100 μl DELFIA® enhancement solution to each well. • (11) Measure the fluorescence (615 nm) in Victor 2 1420 multilabel counter (Perkin Elmer Life Sciences, Milton Keynes, UK) using time-resolved measurement mode. • (12) Wash plates once with PBS and measure protein concentration by the addition of 200 μl BCA reagent to each well, shake for 1–2 min and incubate for 30 mins at 37° C. Read absorption at 570 nm. • (13) Express ELISA results by normalising to protein in the well (Eu counts (cpm) divided by OD@ 570 nm). Compare the effect of HSP90 inhibitors on HSP70 expression with DMSO treated controls. Comments • (1) Cells plated into 96 well plates are incubated in a plastic box to reduce evaporation from the outside wells. In addition, ELISA incubation steps are carried out in a 37° C. laboratory incubator and in a moist environment e.g., plastic box lined with damp tissue paper. • (2) All additions to the microtitre plate can be achieved using a multichannel pipette or for larger numbers of plates an automated dispenser such as a Multidrop (Thermo Labsytems, Basingstoke, UK). • (3) For convenience, if the effects of compounds are being studied at several time points the ELISA can be carried out in batches, plates being stored (in a container) at 4° C. following the fixation step. In this case the plates are washed only once following fixation and again immediately before the first ELISA step (step 6 above). In addition all the plates can be stored for subsequent protein estimation. • (4) Reproducibility of both the measured Europium counts and the protein measurements was between 10–15% (CV). • (5) DELFIA® reagents (see, e.g., Hemmila and Webb, 1997) have been routinely used in cell-based ELISAs. This endpoint provides high sensitivity and the time-resolved measurements reduce interference from non-specific fluorescence. However, it is also possible to use a horse radish peroxidase second antibody conjugate and either a calorimetric (e.g., tetramethylbenzidine) or chemiluminescent reagent (e.g., ECL reagent (Amersham Pharmacia Biotech, Little Chalfont, Bucks, UK) for endpoint measurement. • (6) It is recommended that a blank consisting of second-antibody only (i.e., no first antibody) together with an appropriate first antibody control (e.g., isotype matched IgG) are included in assays during the process of optimising reagent concentrations. Growth Inhibition Assay
The effect of various compounds of the present invention on the expression of the molecular marker HSP70 was determined using the cell-based ELISA and a specific monoclonal antibody to HSP70 in HCT116 cells, as described above. Cellular protein following compound exposure was determined using BCA assay as described in the method.

Row | SMILES | IC50 [1] [µM] | cellular protein measured by BCA, reduction of DMSO controls (HCT116 cells; HCT116, 10 μM) | Cellular Protein (% DMSO controls) (HCT116 cells; (48 h)) [%] | Cellular Protein (% DMSO controls) (HCT116 cells; (time not given)) [%]
1 | CCc1cc(-c2n[nH]c(C)c2-c2ccc3c(c2)OCCO3)c(O)cc1O [CCT018159, 4-[4-(2,3-Dihydro-benzo[1,4]dioxin-6-yl)-5-methyl-1H-pyrazol-3-yl]-6-ethyl-benzene-1,3-diol] | 13.5 | 50–80% | 50.0 | 20.8
2 | Cc1[nH]nc(-c2ccc(O)cc2O)c1-c1ccc2c(c1)OCCO2 [CCT018157] | 14 |  | 91.3 | 21.2
